Measurements published in US20060229347A1, “Treatment of eczemas” (Astion Development A/S, priority 2005, published 2006).
Where a name gives a salt, the structure may show the parent alone.

What was measured:
[1] = system: oxazolone induced ear inflammation; experiment: Oxazolone induced Mouse Ear Oedema Assay; type: in vivo, mice; details: for % inhibition of ear swelling: 24 hours; for inhibition of the formation of ear oedema: Example 7, 500 μg/ear dissolved in 96% ethanol
Protocol: Screening for Anti-inflammatory Effect in the Oxazolone induced Mouse Ear Oedema Assay. […] This screening method is commonly employed for screening and evaluation of anti-inflammatory drugs, in particular with respect to the inflammation seen in contact dermatitis. Betamethasone-17 valerate was used as the positive control. […] Betamethason was administered topically in quantities of 20 μg/ear. Betamethason was applied in the commercial form Celeston valerate® 0.1%. All groups were immunised with 20 μl oxazolone, 1.6% in ethanol 96% (w/v) on the left and the right ear. The ear thickness of all mice on both the left and right side was measured with an electronic measuring gauge. All groups were challenged with 20 μl oxazolone (1.6% in ethanol 96% (w/v)) on the left ear and the right ear. Vehicle (acetone) or test article solutions were administered 20 minutes before and 20 minutes after oxazolone challenge. 24 hours after oxazolone challenge the ear thickness of all mice was measured with an electronic measuring gauge. Mean thickness of the ears and standard deviations were calculated. Ear swelling was calculated as the difference between the ear thickness day 7 and day 8. […] Differences in ear swelling between the vehicle treated group and the other groups were tested for significance employing a non-parametric statistical method of analysis, the Mann-Whitney U test. The required level of significance was p<0.05. […] Both test articles were applied in a dose of 500 μg/ear and dissolved in 96% ethanol. Betamethason, as the positive control was administered topically in quantities of 20 μg/ear.

skin = details: guinea pig, in vivo
Protocol: 17th, 1992, and the test method B.6 of the 96/54 E.E.C Directive.
Albino guinea pigs of Dunkin-Hartley strain were exposed to the test item after an acclimatisation period of at least five days.
The Maximum Non Necrotizing Concentration (M.N.N.C.) was determined by injecting by intradermal route the following concentrations: 2.5%, 1.25%, 0.625%, 0.3125%, 0.1562% and 0.078% diluted in physiological saline solution.
Pre-Maximum Non Irritant Concentration (pre-M.N.I.C.) was determined by application of the test item under an occlusive dressing during 24 hours, at the following concentrations: 2.5%, 1.25%, 0.625%, 0.3125% diluted in physiological saline solution.
Maximum Non Irritant Concentration (M.N.I.C.) was determined by initially establishing an induction phase by intradermal injection with a physiological saline solution and by topical application of distilled water followed by a 18-day rest phase. In the challenge phase where the test item is under occlusive dressing for 24 hours, the test item was applied to the skin of the Albino guinea pigs at the following concentrations: 2.5%, 1.25%, 0.625%, 0.3125% diluted in physiological saline solution.

undamaged skin = experiment: Acute dermal irritation; type: in vivo; details: monoethanolamine salt 5% by weight in water, 0.5 mL patch; reading time 1 hour
Protocol: The sample was applied at a dose of 0.5 mL, on an undamaged skin area of the right flank of each animal. The patch was secured in position with a strip of surgical adhesive tape.
On the left flank an untreated area served as the control.
The skin reactions were evaluated after 1 hour and then after 24, 48 and 72 hours following removal of the patch according to the following grading scale:
Erythema (0: No erythema, 1: Slight(barelyperceptible)erythema, 2: Definite erythema, 3: Moderate to severe erythema, 4: Severe erythema (purple) with formation of eschars (deep lesions) preventing erythema from being grading).
Oedema (0: No oedema, 1: Very slight (barely perceptible) oedema, 2: Slight oedema (contour clearly defined), 3: Moderate oedema (thickness), 4: Severe oedema (thickness greater than 1 mm, surface larger than zone of application)

Phosphodiesterase PDE IV = Phosphodiesterase PDE IV enzyme inhibition assay (MDS Pharma Service No. 154000); type: biochemical; details: in comparison to Oxaprozin
Protocol: Trends Pharmacol Sci 1991 January; 12(1):19-27 and in Cortijo J, Bou J, Beleta J, Cardelus I, Llenas J, Morcillo E et al. Investigation into the role of phosphodiesterase IV in bronchorelaxation, including studies with human bronchus. Br J Pharmacol 1993 February; 108(2):562-8. The inhibitory activity of Phosphodiesterase PDE IV may be determined at MDS Pharma Service using test method number 154000.
(§1) The enzyme assays were conducted by MSD Pharma Services.

[2] = target: T1, Protein Tyrosine Kinase, ZA70 (ZAP-70) (Homo sapiens, UniProt P43403); experiment: Protein Tyrosine Kinase ZA70 (ZAP-70) enzyme inhibition assay (MDS Pharma Service No. 155987); type: biochemical; details: in comparison to Oxaprozin
T1 construct: purchased MDS Pharma Service (contract assay) 155987
T1 sequence (P43403 1-619): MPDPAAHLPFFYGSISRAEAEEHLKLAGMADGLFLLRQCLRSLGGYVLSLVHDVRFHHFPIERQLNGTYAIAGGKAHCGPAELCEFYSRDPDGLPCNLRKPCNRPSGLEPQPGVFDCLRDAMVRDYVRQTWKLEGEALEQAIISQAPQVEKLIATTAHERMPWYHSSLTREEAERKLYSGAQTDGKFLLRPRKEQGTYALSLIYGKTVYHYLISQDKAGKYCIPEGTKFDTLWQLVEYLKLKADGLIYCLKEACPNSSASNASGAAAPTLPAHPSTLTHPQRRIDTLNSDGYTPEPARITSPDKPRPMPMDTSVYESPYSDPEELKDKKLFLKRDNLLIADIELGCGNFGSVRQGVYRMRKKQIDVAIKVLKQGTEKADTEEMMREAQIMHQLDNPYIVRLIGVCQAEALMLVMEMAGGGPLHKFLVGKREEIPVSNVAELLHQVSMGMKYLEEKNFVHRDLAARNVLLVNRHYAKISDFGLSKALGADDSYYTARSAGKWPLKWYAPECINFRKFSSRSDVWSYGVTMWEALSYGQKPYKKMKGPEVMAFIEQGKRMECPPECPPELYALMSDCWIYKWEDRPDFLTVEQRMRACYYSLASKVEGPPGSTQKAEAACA
Source text: The term “an inhibitor of Protein tyrosine kinase ZAP-70” refers to any agent that inhibits the catalytic activity of the Protein tyrosine kinase ZAP-70 in vitro as may be determined using a method described in Huckle W R, Dy R C, Earp H S. Calcium-dependent increase in tyrosine kinase activity stimulated by angiotensin II. Proc Natl Acad Sci USA 1992 Sep. 15; 89(18):8837-41 and in Isakov N, Wange R L, Watts J D, Aebersold R, Samelson L E. Purification and characterization of human ZAP-70 protein-tyrosine kinase from a baculovirus expression system. J Biol Chem 1996 Jun. 28; 271(26):15753-61. The inhibitory activity of Protein Tyrosine Kinase ZAP may be determined at MDS Pharma Service using test method number 155987.
as §1

[3] = target: T2, Protein Tyrosine Kinase, SYK (Homo sapiens, UniProt P43405); experiment: Protein Tyrosine Kinase SYK enzyme inhibition assay (MDS Pharma Service No. 155761); type: biochemical; details: in comparison to Oxaprozin
T2 construct: purchased MDS Pharma Service (contract assay) 155761
Source text: The term “an inhibitor of Protein tyrosine kinase Syk” refers to any agent that inhibits the catalytic activity of Protein tyrosine kinase Syk in vitro. Such in vitro assays are described in Shichijo M, Yamamoto N, Tsujishita H, Kimata M, Nagai H, Kokubo T. Inhibition of syk activity and degranulation of human mast cells by flavonoids. Biol Pharm Bull 2003 December; 26(12):1685-90 and in Zhang J, Berenstein E, Siraganian R P. Phosphorylation of Tyr342 in the linker region of Syk is critical for Fc epsilon RI signalling in mast cells. Mol Cell Biol 2002 December; 22(23):8144-54. The inhibitory activity of Protein Tyrosine Kinase SYK may be determined at MDS Pharma Service using test method number 155761.
as §1

## O=C(O)CCc1nc(-c2ccccc2)c(-c2ccccc2)o1 [Oxaprozin monoethanolamine salt]
[1]; 250 μg/ear topical in acetone, 20 min before and after oxazolone challenge
  % inhibition of ear swelling: 53%
[1]; 500 μg/ear topical in acetone, 20 min before and after oxazolone challenge
  % inhibition of ear swelling: 77%
[1]; 1000 μg/ear topical in acetone, 20 min before and after oxazolone challenge
  % inhibition of ear swelling: 95%
[1]; 250-1000 μg/ear
  inhibition of ear swelling (conclusion): dose dependent and highly significant inhibition of ear swelling
[1]; highest dose (1000 μg/ear) vs Betamethasone 17-valerate 20 μg/ear
  inhibition of ear swelling compared with Betamethasone 17-valerate: significantly stronger
skin
  skin sensitization (cutaneous reactions attributable to allergy): not causing sensitization reactions

## CCCCC(=O)O[C@]1(C(=O)CO)[C@@H](C)C[C@H]2[C@@H]3CCC4=CC(=O)C=C[C@]4(C)[C@@]3(F)[C@@H](O)C[C@@]21C [Betamethasone 17-valerate]
[1]; 20 μg/ear topical, Celeston valerate 0.1%
  % inhibition of ear swelling: 66%

## O=C(O)CCc1nc(-c2ccccc2)c(-c2ccccc2)o1 [Oxaprozin, 4,5-diphenyl-2-oxazole-propionic acid]
[1]
  inhibition of the formation of ear oedema: statistically significant inhibition of the formation of ear oedema
Undamaged skin
  cutaneous reactions (erythema): slight erythema

## CCCCOc1ccc(CC(=O)NO)cc1 [Bufexamac]
Phosphodiesterase PDE IV
  inhibitory effect on the PDE-IV enzyme: exhibits inhibitory effect
[2]
  inhibitory effect on Protein Tyrosine Kinase ZAP-70: only exhibits inhibitory effect on the PDE-IV enzyme
[1]
  inhibition of the formation of ear oedema: did not inhibit the formation of ear oedema at all
[3]
  inhibitory effect on Protein Tyrosine Kinase SYK: only exhibits inhibitory effect on the PDE-IV enzyme
